We go through 4 compounds from patent publication US11612586B2, “Indole regulation of antigen presenting cells” (THE TEXAS A&M UNIVERSITY SYSTEM, priority 2016, dated 2023).

Assay type in all cases: cell-based, mouse
Experiment [1] concerns Erk. As to the kind of experiment: pERK signaling in BMDCs. To be noted: 1 mM TDMM 24 hours, CpG (5 uM) 15 minutes. On the procedure: (§1) The inventors performed a series of assays where bone marrow derived macrophages (BMDMs), bone marrow derived dendritic cells (BMDCs), and splenic dendritic cells (splenic DCs), were exposed to a series of TDMMs, including indole, indole-3-acetate (I3AT), 5-hydroxyindole (5HI), and indole-3-pyruvate (I3P), as well as indole-3-carbinol (I3C; a plant derived compound) to be used for a positive control (1 mM for 24 hours). The BMDMs and BMDCs were stimulated with LPS for 4 hours and assayed at day 7 for expression of various pro-inflammatory cytokines. In a similar assay, the BMDMs and BMDCs were stimulated with LPS or CpG, respectively, for 15 minutes and assayed for pAKT and pERK signaling, which is a reflection of pro-inflammatory response.

In experiment [2] the test system is IL-12. As to the kind of experiment: IL-12 production in BMDCs, intracellular staining, flow cytometry. To be noted: BMDCs, 1 mM TDMM 24 hours, LPS (1 ug/ml) 4 hours. On the procedure: (§2) Intracellular staining was performed to assess TNF (FIG. 3A) and IL-12 (FIG. 3B) production.
(§3) Briefly, bone marrow was harvested from femurs of mice and cultured for 7 days in the presence of DC-skewing cytokines, GM-CSF and IL-4. […] The pro-inflammatory cytokines, IL-6 and IL-12, were specifically queried. […] Immune cells communicate largely through the production of soluble factors including cytokines, and DCs detect these signals and determine their effector functions accordingly.
as §1
Background: In flow cytometry, cells or beads pass a laser one at a time.

The subject of experiment [3] is TNF. As to the kind of experiment: TNF production in BMDCs, intracellular staining, flow cytometry. Particulars: 1 mM TDMM 24 hours, LPS (1 ug/ml) 4 hours. The method, then: Intracellular staining was performed to assess TNF production.
as §2, §3, §1

The test system of experiment [4] is Erk. Kind of experiment: phospho-Erk signaling in BMDMs. Particulars: 1 mM TDMM 24 hours, LPS 1 ug/ml 15 minutes. On the procedure:
(§4) The PI3K/Akt and MAPK/Erk signaling pathways regulate many cellular processes including survival, apoptosis, growth, and cytokine production. […] Specifically, BMDMs were treated with indole (1 mM) or DMF control for 18 hours, then stimulated with LPS (10 ug/ml) or CpG (5 uM) for 30 minutes. Cells were stained for phospho-Akt or phospho-Erk and analyzed by flow cytometry.
as §1

For experiment [5], the system named is Akt. Kind of experiment: phospho-Akt in BMDCs, flow cytometry. To be noted: BMDCs, 1 mM TDMM 24 hours, CpG (5 uM) 15 minutes. On the procedure: Flow cytometric analysis was performed on BMDCs conditioned with indole from day 3 of culture and subsequently stimulated with LPS (5 ug/ml) for the given times. Cells were stained for phospho-Akt and analyzed by flow cytometry.
Flow cytometric analysis was performed on BMDCs from WT or AhrKO mice cultured in the presence of indole (1 mM) from day 3. DCs were stimulated with LPS (5 ug/ml) for the given times and stained for phospho-Akt, which was detected by flow cytometry. Percentage of pAkt-positive DCs indicated. Representative data is from one of three independent experiments.
Another central mediator of cellular signaling is the serine/threonine kinase, Akt (also referred to as protein kinase B), which regulates cellular processes including metabolism, growth, proliferation, and survival. The Akt pathway is activated by numerous receptor tyrosine kinases, cytokine receptors, G-protein-coupled receptors, and other molecules which activate the lipid kinase PI3K and result in production of phosphatidylinositol (3,4,5)-trisphosphate (PIPS). This second messenger acts as a docking site at the plasma membrane for Akt where phosphorylation and activation occurs. Akt is located upstream of NF-kB and can induce NF-kB signaling via phosphorylation of IKKα and Tp12. The effect of indole on Akt phosphorylation was assessed to determine whether indole's inhibition of NF-kB might be a secondary effect due to modulation of an upstream target.
as §1

Experiment [6] concerns Akt. As to the kind of experiment: phospho-Akt signaling in BMDMs. Particulars: 1 mM TDMM 24 hours, LPS 1 ug/ml 15 minutes. On the procedure: as §4, §1
In experiment [7] the test system is IL-12. As to the kind of experiment: IL-12 production in BMDMs, intracellular staining, flow cytometry. Particulars: BMDMs, 1 mM TDMM 24 hours, LPS 1 ug/ml 4 hours. On the procedure: (§5) BMDMs were treated with indole or DMF control for 18 hours or 4 hours, followed by stimulation with LPS (2 ug/ml or 250 ng/ml) for 4 hours in the presence of Golgiplug. BMDMs were then stained for intracellular TNF or IL-12 and analyzed by flow cytometry.
(§6) First, pro-inflammatory cytokine production in macrophages was investigated. […] In the DC study described herein, DCs were typically conditioned with indole during their development from bone marrow precursors in order to mimic the proximity of DC progenitor cells to indole in the intestinal microenvironment during development. […] BMDMs were treated for 18 hours with indole, followed by a 4 hour stimulation with either a very high (2 ug/ml) or low (250 ng/ml) dose of LPS.
(§7) Additionally, to determine if recently arrived macrophage precursors might also be affected, BMDMs were next treated for just 4 hours with indole, followed by a […] stimulation with the same LPS concentrations.
(§8) To address the question of indole and AhR dependence in macrophages, experiments using BMDMs derived from AhR-knockout mice were run alongside wild-type littermate controls. Specifically, flow cytometric analysis of BMDMs was performed on WT or AhR-KO mice and treated with indole or DMF control for 18 hours. BMDMs were stimulated for 4 hours with LPS (50 ng/ml) in the presence of Golgiplug, then stained for intracellular TNF (left panels) and IL-12 (right panels).
as §1
(§9) Bone marrow was harvested as described above and cultured at a density of 1×10^6 cells in 10 ml complete media supplemented with 10 ng/ml M-CSF (Peprotech) in 100 mm×15 mm petri dishes. Media with cytokine was replenished on day 3. Adherent and semi-adherent cells were recovered on day 7, plated, and treated with indole prior to downstream experiments.

Experiment [8] concerns Stat3. Kind of experiment: IL-6 induced pSTAT3 signaling in splenic DCs. Particulars: for IL-6 induced pSTAT3 expression, CD4+ DCs / IL-6 induced pSTAT3 expression, CD4− DCs: splenic DCs, 1 mM TDMM 24 hours, IL-6 (10 ng/ml) 30 minutes; for IL-6 induced pSTAT3 signaling in splenic DCs: TDMM 24 hours, 10 ng/ml IL-6 30 minutes. On the procedure:
Briefly, flow cytometric analysis was performed on splenic DCs conditioned with the indicated TDMMs for 24 hours and then subsequently stimulated with 10 ng/ml IL-6 for 30 minutes.

The subject of experiment [9] is TNF. As to the kind of experiment: TNF production in BMDMs, intracellular staining, flow cytometry. To be noted: BMDMs, 1 mM TDMM 24 hours, LPS 1 ug/ml 4 hours. The method, then: as §5, §6, §7, §8, §1, §9

`OCc1c[nH]c2ccccc12` [I3C, indole-3-carbinol, reference compound]: the pERK entry in experiment [1] and in experiment [4] was “↓↓↓↓” throughout. Besides, the IL-12 result is reported as “↓↓↓” in experiment [2] and “↓↓↓↓” in experiment [7]. The TNF result in experiment [3] and in experiment [9] was “↓↓↓↓” each time. The pAKT result in experiment [5] was “↓↓↓↓”; in experiment [6], “↓↓”. Further, in [8], the “IL-6 induced pSTAT3 expression, CD4+ DCs” value was “↓↓↓↓”. For the same compound, in experiment [8], the “IL-6 induced pSTAT3 expression, CD4− DCs” value is reported as “↓↓↓↓”.

For the compound `O=C(O)Cc1c[nH]c2ccccc12` [I3AT, indole-3-acetate], the pERK result in experiment [1] was “reduced and ↓”; in experiment [4], “No effect”. Moreover, the IL-12 entry in [2] was “reduction and ↓”; in [7], “reduction and ↓”. In addition, the TNF result in experiment [3] is “reduction and ↓”; in experiment [9], “No effect”. For the same compound, the pAKT entry is “reduced and ↓” in [5]; “No effect” in experiment [6]. For the same compound, the “IL-6 induced pSTAT3 signaling in splenic DCs” value (“IL-6 induced pSTAT3 signaling” below) in [8] was “inhibits”. In addition, the “IL-6 induced pSTAT3 expression, CD4+ DCs” value in experiment [8] is “↓”. In addition, the “IL-6 induced pSTAT3 expression, CD4− DCs” value in experiment [8] is recorded as “↓”.

Regarding `Oc1ccc2[nH]ccc2c1` [5HI, 5-hydroxyindole], the pERK result in experiment [1] is “reduced and ↓”. The IL-12 entry in experiment [2] is “reduction and ↓”. Further, the TNF result in experiment [3] is “reduction and ↓↓”. In addition, the pERK result in experiment [4] was “reduced and ↓”. In addition, the pAKT entry in experiment [5] is “reduced and ↓”. Besides, the pAKT result in experiment [6] was “reduced and ↓”. In experiment [8], the “IL-6 induced pSTAT3 signaling” value is “inhibits”; the “IL-6 induced pSTAT3 expression, CD4+ DCs” value was “↓”; the “IL-6 induced pSTAT3 expression, CD4− DCs” value is recorded as “↓”.

In the case of `O=C(O)C(=O)Cc1c[nH]c2ccccc12` [I3P, indole-3-pyruvate], the pERK result in [1] is “reduced and ↓”. For the same compound, the IL-12 entry in experiment [2] was “reduction and ↓”. In [3], the TNF result was “reduction and ↓”. For the same compound, the pERK result in experiment [4] is “No effect”. Moreover, the pAKT entry in experiment [5] is “reduced and ↓”. For the same compound, the pAKT entry in experiment [6] is “No effect”. Moreover, in experiment [8], the “IL-6 induced pSTAT3 signaling” value was “inhibits”; the “IL-6 induced pSTAT3 expression, CD4+ DCs” value is recorded as “↓”; the “IL-6 induced pSTAT3 expression, CD4− DCs” value is given as “↓”.
